Results from patent US20160237450A1, “METHOD FOR ENHANCING DROUGHT TOLERANCE IN PLANTS” (Plant Response Biotech S.L., priority 2015, published 2016).

Legend:
Type in all cases: in vivo
[1] = test system: cucumber plants ('Marketer'); assay: Cucumber plant survival under extreme drought
Protocol: (§1) For each drought or limited water experiment 480 seeds (of either pepper, barley, tomato, cucumber or corn) were sown, producing 384 plants in 512 cm^3 pots (4 plants per pot). Plants were grown under chamber conditions at 21° C. for 3 weeks. Then, the plants were moved to a greenhouse, where average temperature was 25° C. to 28° C. Spray and irrigation treatments as described herein were done when the plants had two extended leaves and the next pair of leaves were coming up.
(§2) Treatments: Twelve pots (containing 48 plants) were irrigated with 40 ml of either: water, 0.1 g/L TMAO di-hydrate solution, 1.0 g/L TMAO di-hydrate solution, or 5.5 g/L TMAO di-hydrate solution. Another set of 12 pots containing 48 plants were sprayed with 40 ml of either water (3.3 ml in average per pot), a solution containing 0.1 g/L TMAO di-hydrate solution, 1.0 g/L TMAO di-hydrate, or 5 g/L, or 10 g/L TMAO di-hydrate. Further sets of 12 pots containing 48 plants were both sprayed with each initial solution TMAO di-hydrate solution and further irrigated with the same TMAO di-hydrate solutions used in the control water sprayed plants. All pots were also watered with 40 ml of water. The sprayed plants were watered with the same volume of water as the “irrigated plants). The pots were located on plastic glass to maintain constant moisture and to avoid liquid spillage during watering. Trays containing the pots were located on greenhouse tables. The distribution of the trays on the table and the position on the pots in the tray was changed every week to avoid position effects.
After the treatments described above, the plants were not watered until the pots completely lost their moisture, taking about 4 to 8 days depending on the season, at which point the plants were extremely wilted for the extreme drought experiments. The plants were then watered once with solutions containing the different amounts of TMAO di-hydrate (0.1 g/L, 1.0 g/L, 5 g/L, or 10 g/L) or just water, after which the plants were left to lose their moisture completely again for three consecutive cycles of watering after wilting. For the “extreme drought” experiments plants were allowed to wilt severely before watering and then the plant survival rate was recorded and analyzed.
TMAO di-hydrate applied exogenously which increases the endogenous content of TMAO as if the plants were overexpressing an FMO protein at least 4 times increases plant survival in cucumber under extreme drought conditions. ‘Marketer’ cucumber seeds were sown, grown and treated as described above.

leek plants = assay: Yield production without drought stress, leek; settings: 1 g/l spray every 4 weeks for 3 months, no drought stress
Protocol: (§3) In order to determine the plant yield productivity under normal conditions, ‘Sabrina’, ‘Candonga’ and ‘Fortuna’ strawberry varieties, leek, lettuce, “Iceberg” variety, broccoli “Parthenon” variety, celery or kohlrabi plants, were grown under standard production conditions and 120 plants of each variety per treatment (where the treatment was a control comprising standard watering or 1 g/L of TMAO di-hydrate spray every four weeks) were analyzed. Plants were located in four (4) different positions for each group of 30 plants from the same treatment. Fruits, leaves or roots were harvested from individual plants and total weight was determined for each plant.
(§4) Root or leaves yield was determined in the plants treated with 1 g/l of TMAO di-hydrate or water as described above in order to evaluate the trade-off costs of the treatment with no drought stress.

celery plants = assay: Yield production without drought stress, celery; settings: 1 g/l spray every 4 weeks for 3 months, no drought stress
Protocol: as §3, §4

barley plants ('Bomi') = assay: Barley dry weight under drought
Protocol: as §1, §2
After the treatments described above, the plants were not watered until the pots completely lost their moisture, taking about 4 to 8 days depending on the season, at which point the plants were extremely wilted for the extreme drought experiments. […] For the “extreme drought” experiments plants were allowed to wilt severely before watering and then the plant survival rate was recorded and analyzed. […]

corn plants ('FAO700') = assay: Corn number of green leaves under limited water; settings: 30% water
Protocol: (§5) In order to determine the drought or drought stress tolerance after seed treatments with TMAO di-hydrate and germination in the presence of TMAO di-hydrate, barley “Hispanic” seeds, corn “FAO700” seeds, and “Sambro” sunflower seeds were surface sterilized for 3 minutes in ethanol 70%, then rinsed twice and finally included in a pre-treatment solution of 1 g/L TMAO di-hydrate solution (or just water) under shaking for 3 hours at a dose of 1 litre per Kg of seeds. Then, the seeds were sown in randomized plots of 10 sqm in a surface of 2.000 sqm. Chlorophyll content was measured 1 month before harvest. In corn irrigation was applied in half of the plots while the other half only received an initial establishment watering. The barley plots received 200 l of rain per m^2 through the growing season. Some of the plots received a second spray treatment with 1 g/liter of TMAO. […] At least 3 independent plants were treated per experiment.
TMAO di-hydrate applied exogenously which increases the endogenous content of TMAO as if the plants were overexpressing an FMO protein at least 4 times increases plant production in corn under limited water irrigation. Plants were irrigated with 30% of the water they normally require. ‘FAO700’ corn seeds were sown, grown and treated as described. Spray treatments with 1 g/L TMAO increased plant number of green leaves.

sunflower plants = assay: Sunflower field chlorophyll content and seed production after seed treatment; settings: seed treatment 1 g/l/Kg, natural stress
Protocol: as §5
TMAO di-hydrate applied exogenously which increases the endogenous content of TMAO as if the plants were overexpressing an FMO protein at least 4 times increases plant production in sunflower plants grown in the field without external irrigation. ‘Sambra” sunflower seeds were sown, grown and treated as described above. Seed treatment (1 g/l/Kg TMAO) increased plant chlorophyll content and seed production. […] Both chlorophyll and weight differences between control and TMAO groups are statistically significant. Relative chlorophyll content values are obtained by optical absorbance in two different wavebands: 653 nm (chlorophyll) and 931 nm (Near Infra-Red).

## C[N+](C)(C)[O-].O.O [TMAO di-hydrate, trimethylamine N-oxide di-hydrate]
[1]; irrigation 0.1 g/L, initial spray 0.1 g/L
  SURVIVAL RATE (%): 82.9 ± 7.4%
[1]; irrigation 0.1 g/L, initial spray 1 g/L
  SURVIVAL RATE (%): 91.6 ± 7.4%
[1]; irrigation 0.1 g/L, initial spray 5 g/L
  SURVIVAL RATE (%): 95.8 ± 7.4%
[1]; irrigation 0.1 g/L, initial spray water
  SURVIVAL RATE (%): 45.8 ± 7.4%
[1]; irrigation 1 g/L, initial spray 0.1 g/L
  SURVIVAL RATE (%): 91.6 ± 5.9%
[1]; irrigation 1 g/L, initial spray 1 g/L
  SURVIVAL RATE (%): 91.6 ± 5.9%
[1]; irrigation 1 g/L, initial spray 5 g/L
  SURVIVAL RATE (%): 91.6 ± 5.9%
[1]; irrigation 1 g/L, initial spray water
  SURVIVAL RATE (%): 87.5 ± 5.9%
[1]; irrigation 5 g/L, initial spray 0.1 g/L
  SURVIVAL RATE (%): 75.0 ± 7.2%
[1]; irrigation 5 g/L, initial spray 1 g/L
  SURVIVAL RATE (%): 95.8 ± 7.2%
[1]; irrigation 5 g/L, initial spray 5 g/L
  SURVIVAL RATE (%): 95.8 ± 7.2%
[1]; irrigation 5 g/L, initial spray water
  SURVIVAL RATE (%): 66.6 ± 7.2%
[1]; irrigation all regimes, initial spray 0.1 g/L
  SURVIVAL RATE (%): 80.1 ± 3.4%
[1]; irrigation all regimes, initial spray 1 g/L
  SURVIVAL RATE (%): 92.7 ± 3.4%
[1]; irrigation all regimes, initial spray 5 g/L
  SURVIVAL RATE (%): 94.7 ± 3.4%
[1]; irrigation water, initial spray 0.1 g/L
  SURVIVAL RATE (%): 83.3 ± 7.2%
[1]; irrigation water, initial spray 1 g/L
  SURVIVAL RATE (%): 91.6 ± 7.2%
[1]; irrigation water, initial spray 5 g/L
  SURVIVAL RATE (%): 95.8 ± 7.2%
Leek plants
  Yield production, % Control: 102%
Celery plants
  Yield production, % Control: 100%
Barley plants ('Bomi'); initial treatment 1 g/L sprayed, irrigations water, three cycles of wilt-watering
  AVERAGE DRY weight ± S.E.: 1205.4 ± 60.37 mg
Barley plants ('Bomi'); initial treatment 1 g/L watered, irrigations water, three cycles of wilt-watering
  AVERAGE DRY weight ± S.E.: 1371.4 ± 66.13 mg
Barley plants ('Bomi'); no initial treatment, irrigations 1 g/L
  AVERAGE DRY weight ± S.E.: 1216.1 ± 33.44 mg
Corn plants ('FAO700'); 1 g/L (rows 3 and 4: spray, seed)
  increase in biomass production shown in green leaf production over untreated plants with 30% irrigation: 47%
Corn plants ('FAO700'); 1 g/L seed treatment
  AVERAGE NUMBER OF GREEN LEAVES: 8.50 ± 0.41
Corn plants ('FAO700'); 1 g/L spray
  AVERAGE NUMBER OF GREEN LEAVES: 8.50 ± 0.25
Sunflower plants
  % GAIN/LOSS RESPECT TO THE CONTROL, chlorophyll content: 30%
  % GAIN/LOSS RESPECT TO THE CONTROL, weight of seeds from 1 plant: 77.7%
  C[…] (OD663/OD931, AVERAGE VALUE): 21.17 ± 0.54
  WEIGHT (GRAMS) OF SEEDS FROM 1 PLANT, AVERAGE VALUE: 161.3 ± 13.1 GRAMS
